The target in one assay is T1, FPR2 (Homo sapiens, UniProt P25090).
T1 construct: expressed in transfected cells; host or cells: CHO-Gα16 cells
T1 sequence (P25090 1-351): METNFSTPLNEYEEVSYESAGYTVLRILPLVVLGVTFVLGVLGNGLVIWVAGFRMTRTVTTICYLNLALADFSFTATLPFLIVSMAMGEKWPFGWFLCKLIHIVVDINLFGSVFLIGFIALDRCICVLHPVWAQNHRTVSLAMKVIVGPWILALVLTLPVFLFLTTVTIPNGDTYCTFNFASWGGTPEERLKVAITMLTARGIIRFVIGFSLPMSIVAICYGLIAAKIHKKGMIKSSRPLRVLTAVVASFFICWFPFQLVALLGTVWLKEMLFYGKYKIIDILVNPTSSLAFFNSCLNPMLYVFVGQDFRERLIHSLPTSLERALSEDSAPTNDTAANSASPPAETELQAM
Briefly: Compound-induced calcium activity on FLIPR Tetra in Gα16 cells stably expressing FPR2. The class given is cell-based. As to conditions: for FPR2 Ga16-HEK293 (Rel. eff.): relative efficacy, value in brackets, table head Ga16-HEK293, text CHO-Gα16 cells; for pEC50: table head Ga16-HEK293, text CHO-Gα16 cells stably expressing FPR2, tested 0.61 to 10,000 nM. The protocol:
(§1) CHO-Gα16 cells stably expressing FPR1 or FPR2 were cultured in (F12, 10% FBS, 1% PSA, 400 μg/ml geneticin and 50 μg/ml hygromycin). In general, the day before the experiment, 18,000 cells/well were plated in a 384-well clear bottom poly-D-lysine coated plate. The following day the screening compound-induced calcium activity was assayed on the FLIPR^Tetra. The drug plates were prepared in 384-well microplates using the EP3 and the MultiPROBE robotic liquid handling systems. Compounds were tested at concentrations ranging from 0.61 to 10,000 nM. Results are expressed as EC50 (nM) and efficacy values.

Another assay deals with T2, FPR1 (Homo sapiens, UniProt P21462).
T2 construct: expressed in transfected cells; host or cells: CHO-Gα16 cells
T2 sequence (P21462 1-350): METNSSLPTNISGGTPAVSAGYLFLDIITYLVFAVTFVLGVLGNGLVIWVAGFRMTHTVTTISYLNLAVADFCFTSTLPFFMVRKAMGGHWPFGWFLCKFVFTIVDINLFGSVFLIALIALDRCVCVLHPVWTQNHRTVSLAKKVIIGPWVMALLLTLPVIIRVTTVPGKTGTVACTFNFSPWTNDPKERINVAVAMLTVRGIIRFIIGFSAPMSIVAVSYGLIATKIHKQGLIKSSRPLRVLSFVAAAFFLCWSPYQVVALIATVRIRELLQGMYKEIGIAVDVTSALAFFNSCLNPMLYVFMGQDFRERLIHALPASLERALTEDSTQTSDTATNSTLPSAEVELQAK
Kind of assay: Compound-induced calcium activity on FLIPR Tetra in Gα16 cells stably expressing FPR1. The class given is cell-based. As to conditions: for FPR1 Ga16-HEK293 (Rel. eff.): relative efficacy, value in brackets, table head Ga16-HEK293, text CHO-Gα16 cells; for pEC50: table head Ga16-HEK293, text CHO-Gα16 cells stably expressing FPR1, tested 0.61 to 10,000 nM. As to the method:
as §1

Structures are written as SMILES. pEC50: −log10 of the molar value.

As to `CC(C)C[C@H](NC(=O)CNC(=O)Nc1ccc(Br)cc1)C(=O)O` [Compound 1, (S)-2-(2-(3-(4-bromophenyl)ureido)acetamido)-4-methylpentanoic acid], at FPR2, the “FPR2 Ga16-HEK293 (Rel. eff.)” value worked out at 0.91 and the pEC50 was 6.65. On FPR1, the “FPR1 Ga16-HEK293 (Rel. eff.)” value is given as 1.00 and the pEC50 is 9.24.
The like results for `O=C(CNC(=O)Nc1ccc(Br)cc1)N[C@@H](Cc1ccccc1)C(=O)O` [Compound 4, (S)-2-(2-(3-(4-bromophenyl)ureido)acetamido)-3-phenylpropanoic acid] were, in that order, 1.07, 6.45, 0.97 and 7.83.
For the compound `CC(C)C[C@H](NC(=O)CCNC(=O)Nc1ccc(Br)cc1)C(=O)O` [Compound 5, (S)-2-(3-(3-(4-bromophenyl)ureido)propanamido)-4-methylpentanoic acid], on FPR2, the “FPR2 Ga16-HEK293 (Rel. eff.)” value came out at 0.81 and the pEC50 was 5.25. Besides, at FPR1, the “FPR1 Ga16-HEK293 (Rel. eff.)” value is recorded as 0.99 and the pEC50 is 7.12.
With `CCC[C@H](NC(=O)CNC(=O)Nc1ccc(Br)cc1)C(=O)O` [Compound 6, (S)-2-(2-(3-(4-bromophenyl)ureido)acetamido)pentanoic acid], on FPR2, the “FPR2 Ga16-HEK293 (Rel. eff.)” value stood at 1.05 and the pEC50 is 6.51. Also, on FPR1, the “FPR1 Ga16-HEK293 (Rel. eff.)” value came to 0.98 and the pEC50 was 8.31.

(Values after patent US20240025844A1, “PHENYL UREA ANALOGS AS FORMYL PEPTIDE RECEPTOR 1 (FPR1) SELECTIVE AGONISTS” (Allergan, Inc., priority 2018, published 2024).)
